Where “and” joins values, the source holds several entries; their conditions need not be identical. Equal entries are not always repeated.
Legend:
Assay type in all cases: in vivo, human
[1] = system: patients with catecholamine-resistant vasodilatory shock; assay: 28-day mortality / survival in ATHOS-3 by baseline serum renin; details: for Hazard Ratio (95% CI), mortality, treatment arm: patients with elevated baseline renin only; for unstratified hazard ratio, 28-day mortality, vs placebo: renin above study population median (high renin), N = 128, 95% CI 0.35-0.88
Procedure: (§1) The Angiotensin II for the Treatment of High-Output Shock 3 (ATHOS-3) study has been previously described—NCT02338843. In brief, adults with vasodilatory shock despite volume resuscitation with ≥25 mL/kg and high-dose vasopressors (defined as a norepinephrine equivalent [NED] of greater than 0.2 mcg/kg/min) were randomly assigned 1:1 to receive synthetic human angiotensin II (La Jolla Pharmaceutical Company, San Diego, Calif.) or saline placebo plus standard vasopressors. Randomization was stratified according to MAP at screening and Acute Physiology and Chronic Health Evaluation II (APACHE II) score.
(§2) Study drug infusion started at 20 ng/kg/min and was adjusted during the first 3 hours to increase the MAP to ≥75 mm Hg while keeping other vasopressors constant. Thereafter, the study drug and other vasopressors were adjusted at the discretion of the treating ICU team to maintain a MAP between 65 and 75 mm Hg. At 48 hours, the infusion was discontinued according to a protocol-specified tapering process. However, continuation was allowed for up to 7 days at the discretion of the ICU team.
(§3) Descriptive statistics with 95% confidence intervals (CIs) were used to summarize data according to treatment group. Differences between treatment groups were identified using the Wilcoxon rank-sum test or analysis of variance for continuous or ordinal variables and the chi-square or Fisher's exact test for discrete variables. Time-to-event data was summarized, including survival, using Kaplan-Meier estimates and compared them by log-rank test. Hazard ratios (HRs) are estimated from a proportional hazards model. A two-sided alpha level of 0.05 was used to test for differences in treatment outcomes without adjustments for multiplicity. Correlation coefficients were calculated for renin versus angiotensin I and the angiotensin I/II ratio. Correlation coefficients were also calculated for renin versus angiotensin I for hour 0 (baseline) and hour 3. For multivariate analyses, covariates that were utilized for study stratification (Model A), covariates that were different between groups defined by P<0.10 (Model B), and statistically significant covariates from Models A and B were included in a multivariate logistic regression (Model C). The dichotomized baseline covariates that were utilized for study stratification were MAP <65 mm Hg and APACHE II score >30.

[2] = system: patients with catecholamine-resistant vasodilatory shock; assay: Adverse events, ATHOS-3 patients with elevated baseline renin; details: patients with elevated renin concentrations at baseline
Procedure: Safety was evaluated by assessment of treatment-emergent adverse events, serious adverse events, and adverse event-related drug discontinuations. Data were analyzed with the use of SAS software, version 9.4 (SAS Institute, Cary, N.C.) and R version 3.5.3. (R Foundation).

serum renin = assay: Serum renin concentration at baseline and hour 3 (DRG Renin ELISA), ATHOS-3 patients
Procedure: as §1, §2
(§4) Serum concentrations of renin, angiotensin I, and angiotensin II were measured after randomization but prior to administration of the study drug and at 3 hours after initiation of study drug.
Serum renin was measured with the DRG Renin ELISA Kit (DRG Instruments GmbH, Marburg, Germany). The DRG ELISA Kit is a solid-phase enzyme-linked immunosorbent assay based on the sandwich principle. The microtiter wells are coated with a monoclonal (mouse) antibody directed toward a unique antigenic site of the human active renin molecule. An aliquot of patient sample containing endogenous renin is rapidly thawed in a water bath and incubated in the coated well together with assay buffer. After incubation, unbound components are washed off. Finally, enzyme conjugate, a monoclonal anti-renin antibody conjugated with horseradish peroxidase, is added. After incubation, unbound enzyme conjugate is washed off. The amount of bound peroxidase is proportional to the concentration of renin in the sample. Having added the substrate solution, the intensity of color developed is proportional to the concentration of active renin in the patient sample. Personnel who conducted the assays were blinded to the study database and treatment allocation.

[3] = system: patients with catecholamine-resistant vasodilatory shock; assay: Ventilator liberation, RRT liberation and ICU discharge in ATHOS-3 by baseline renin
Procedure: as §1, §2, §3

[4] = system: patients with catecholamine-resistant vasodilatory shock; assay: Change in CV and total SOFA score from baseline to hour 48, ATHOS-3
Procedure: as §1, §2, §3

angiotensin I = assay: Serum angiotensin I level at baseline and hour 3, ATHOS-3 patients; details: hour 3; IQR 13.4%-65.1% reduction; placebo 8.1%
Procedure: as §1, §2, §4

patients with severe AKI = assay: Renal recovery in patients with severe AKI by serum renin levels, ATHOS-3; details: first 7 days
Procedure: as §1, §2
as §3, with “For multivariate analyses, covariates that were utilized for study stratification (Model A), covariates that were different between groups defined by P<0.10 (Model B), and statistically significant covariates from Models A and B were included in a multivariate logistic regression (Model C). The dichotomized baseline covariates that were utilized for study stratification were MAP <65 mm Hg and APACHE II score >30.” left out

[5] = system: patients with catecholamine-resistant vasodilatory shock; assay: MAP response at hour 3 by baseline renin, ATHOS-3
Procedure: as §1, §2

[6] = renin above study population median, N = 55
[7] = renin above study population median, N = 55, listed as Angiotensin II
[8] = renin below study population median
[9] = renin below study population median, N = 64

Substance: Asp-Arg-Val-Tyr-Ile-His-Pro-Phe [angiotensin II]
- HR (95% CI), treatment arm, multivariate ([1]; Table 4A whole cohort, full model): 0.77 (0.54-1.08)
- HR (95% CI), treatment arm, multivariate ([1]; Table 4A whole cohort, step-wise model): 0.77 (0.54-1.08)
- HR (95% CI), treatment arm, multivariate ([1]; Table 4B population below median renin, full model): 1.08 (0.64-1.82)
- HR (95% CI), treatment arm, multivariate ([1]; Table 4B population below median renin, step-wise model): 1.11 (0.66-1.86)
- HR (95% CI), treatment arm, multivariate ([1]; Table 4C population above median renin, full model): 0.62 (0.39-0.98)
- HR (95% CI), treatment arm, multivariate ([1]; Table 4C population above median renin, step-wise model): 0.62 (0.39-0.98)
- HR (95% CI), treatment arm, multivariate ([1]; Table 4D whole cohort with treatment-renin interaction, full model): 1.08 (0.64-1.81)
- HR (95% CI), Treatment * Renin >= Population Median interaction ([1]; Table 4D whole cohort, full model): 0.54 (0.27-1.09)
- HR (95% CI), treatment arm, multivariate ([1]; Table 4D whole cohort, step-wise model): 0.77 (0.54-1.08)
- Day 28 mortality ([1]; baseline renin <Pop Median, N = 73): N = 73, 43.9%
- Day 28 mortality ([1]; baseline renin >=Pop Median, N = 64): N = 64, 50.1%
- HR, mortality sensitivity analysis ([1]; high renin cut-off 2x ULN): 0.69
- HR, mortality sensitivity analysis ([1]; high renin cut-off 3x ULN): 0.57
- HR, mortality sensitivity analysis ([1]; high renin cut-off 4x ULN): 0.63
- HR, mortality sensitivity analysis ([1]; high renin cut-off ULN): 0.76
- HR (95% CI), survival, vs placebo ([1]; high renin, AKI subset, N = 62): 0.51 (0.26-0.99), 0.0411
- HR (95% CI), survival, vs placebo ([1]; high renin, ARDS subset, N = 41): 0.49 (0.21-1.16), 0.0964
- HR (95% CI), survival, vs placebo ([1]; low renin, AKI subset, N = 32): 0.55 (0.19-1.58), 0.2574
- HR (95% CI), survival, vs placebo ([1]; low renin, ARDS subset, N = 34): 1.38 (0.59-3.26), 0.4583
- HR (95% CI), survival, vs placebo ([1]; low renin, all, N = 127): 1.11 (0.66-1.86), 0.7002
- Hazard Ratio (95% CI), mortality, treatment arm ([1]; Model A): 0.58 (0.36-0.93)
- Hazard Ratio (95% CI), mortality, treatment arm ([1]; Model B): 0.62 (0.38-0.99)
- 28-day mortality ([1]; patients with renin above the study population median, N = 55, table gives (95% CI)): 50.9%
- 28-day mortality ([1]; patients with renin above the study population median, N = 55, table gives (95% CI), listed as Angiotensin II): 51% (39%-65%)
- 28-day mortality ([1]; patients with renin below the study population median, N = 64): 45% (34%-58%)
- unstratified hazard ratio, 28-day mortality, vs placebo ([1]; all): 0.56 and 0.556
- unstratified hazard ratio, 28-day mortality, vs placebo ([1]; all, listed as LJPC 501): 0.56 (0.35-0.88), 0.0115
- parameter estimate, treatment, Day 28 survival model ([1]; results available data): −0.298
- difference in 28-day mortality vs placebo ([1]; serum renin below the study population median): no statistically significant difference
- parameter estimate, treatment, Day 28 survival model ([1]; with multiple imputation of missing serum renin): −0.229
- adverse events or serious adverse events vs placebo [2]: no significant difference
- median reduction in renin concentration (serum renin; 3 hours after initiation of therapy, IQR 37.9%-66.5% reduction, placebo 14.1%): 54.3%
- Renin % Change at Hour 3, Mean (SD) (serum renin; N 102): −45.5 (38.59) ^ %
- Renin % Change at Hour 3, Median (range) (serum renin; N 102): −54.8 (−91.1-161.0) %
- Renin Change at Hour 3, Mean (SD) (serum renin; N 102): −210.3 (307.43) ^
- Renin Change at Hour 3, Median (range) (serum renin; N 102): −99.6 (−1574-496.2)
- Hour 3 Renin, Mean (SD) (serum renin; N 103): 231.8 (416.91) ^
- Hour 3 Renin, Median (range) (serum renin; N 103): 85.0 (4.0-2739.8)
- RRT Liberation by Day 7 (alive and RRT free) ([3]; renin above study population median): 43%
- ICU Discharge by Day 28 [3, 6]: 44%
- Ventilator Liberation by Day 7 (alive and vent free) [3, 6]: 28%
- ICU Discharge by Day 28 [3, 7]: 44% (32%-58%)
- Ventilator Liberation by Day 7 (alive and vent free) [3, 7]: 28% (18%-43%)
- RRT Liberation by Day 7 (alive and RRT free) ([3]; renin above study population median, listed as Angiotensin II): 43% (25%-66%)
- RRT Liberation by Day 7 (alive and RRT free) [3, 8]: 28% (13%-54%)
- ventilator and RRT liberation, ICU discharge: difference between treatment groups [3, 8]: no differences
- ICU Discharge by Day 28 [3, 9]: 39% (28%-52%)
- Ventilator Liberation by Day 7 (alive and vent free) [3, 9]: 27% (18%-40%)
- Hour 48 change from baseline in Total SOFA, Mean (SD) ([4]; elevated renin population, N = 54): 1.35±6.032
- Hour 48 change from baseline in Total SOFA, Mean (SD) ([4]; elevated renin population, N = 54, listed as LJPC-501): N = 54, 1.35 (6.032)
- Hour 48 change from baseline in CV SOFA, Mean (SD) ([4]; elevated renin population, N = 55): −1.56±1.793
- Hour 48 change from baseline in CV SOFA, Mean (SD) ([4]; elevated renin population, N = 55, listed as LJPC-501): N = 55, −1.56 (1.793)
- Hour 48 change from baseline in Total SOFA, Mean (SD) ([4]; low renin population, N = 62): N = 62, 0.85 (5.524)
- Hour 48 change from baseline in CV SOFA, Mean (SD) ([4]; low renin population, N = 64): N = 64, −1.77 (1.716)
- change in CV SOFA score compared to placebo ([4]; total ATHOS-3 population, baseline to hour 48): significantly greater
- median reduction in angiotensin I levels (angiotensin I): 40.8%
- RR (95% CI), likelihood of renal recovery vs placebo (patients with severe AKI; all patients with severe AKI, N = 105): 2.902 (1.293-6.515)
- RR (95% CI), likelihood of renal recovery vs placebo (patients with severe AKI; severe AKI, renin above study median, N = 62): 4.112 (1.376-12.29), 0.0061
- RR (95% CI), likelihood of renal recovery vs placebo (patients with severe AKI; severe AKI, renin below study median, N = 32): 2.215 (0.429-11.42), 0.3295
- MAP Response at Hour 3 ([5]; baseline renin <Pop Median, 57/73 patients): 57/73 (78.1%)
- MAP Response at Hour 3 ([5]; baseline renin >=Pop Median, 39/64 patients): 39/64 (60.9%)
